Legend:
cannabinoid CB1 receptor = target: T1, cannabinoid CB1 receptor (Homo sapiens, UniProt P21554); assay: PathHunter β-Arrestin assay (allosteric inhibition of agonist Emax); assay type: cell-based; settings: HEK293 CB1 β-arrestin cells; concentration of modulator giving 50% reduction in agonist Emax; 60 min pre-incubation
T1 construct: host or cells: HEK293 CB1 β-arrestin cells
Description: PathHunter™ enzyme fragment complementation is the most important method to measure β-arrestin recruitment. PathHunter™ β-Arrestin assays developed by DiscoveRX are revolutionary high-throughput screening assays for monitoring GPCR activation following ligand stimulation, without an imaging instrument, fluorescent protein tag, or radioactivity.
Instead, the assays detect GPCR activation through binding of β-arrestin to the expressed GPCR of interest, and measure the interaction of the two proteins using enzyme fragment complementation (EFC). The EFC approach offers a range of benefits for screening, including signal amplification and robust performance.
The larger portion of β-gal, termed EA for enzyme acceptor, is fused to the C-terminus of β-arrestin. The smaller, complementing fragment of β-gal, the ProLink™ tag, is expressed as a fusion protein with the GPCR of interest at the C-terminus. Upon activation, the GPCR is bound by β-arrestin. The interaction of β-arrestin and the GPCR forces the interaction of ProLink and EA, thus allowing complementation of the two fragments of β-gal and the formation of a functional enzyme capable of hydrolyzing substrate and generating a […] signal.
Using the PathHunter™ CB1 kit from DiscoveRX, a cannabinoid CB1 receptor agonist is added and activates the receptor, EA, which is fused to the C-terminus of β-arrestin, and then interacts with the ProLink™ tag which is fused to the CB1 receptor. This will result in the […] signal that is recorded by a luminescence plate reader. The […] signal is directly related to the activation of the receptor, therefore a higher concentration of agonist will yield a larger […] signal. The cannabinoid agonist is added in increasing concentrations to obtain an agonist dose response curve. With pre-incubation of a potential allosteric modulator, either an enhancement of agonist activity with an allosteric enhancer or a decrease in the maximal response of the agonist with an allosteric inhibitor is expected.
All raw data are obtained as luminescence (relative light units), and are normalised and presented as a percentage of the maximal response for the cannabinoid CB1 receptor agonist CP55,940 (2-[(1R,2R,5R)-5-hydroxy-2-(3-hydroxypropyl)cyclohexyl]-5-(2-methyloctan-2-yl)phenol).
The PathHunter™ β-Arrestin assay (from DiscoveRX, Fremont, USA) was performed as follows. HEK293 CB1 β-arrestin cells were plated 48 hours before use and incubated at 37° C., 5% CO2 in a humidified incubator. Test compounds were dissolved in dimethylsulfoxide (DMSO) and diluted in optimized cell culture (OCC, as supplied by DiscoveRX) media to the required concentrations. 5 μL of test compound or vehicle solution was added to each well and incubated for 60 minutes at 37° C., 5% CO2 in a humidified incubator. 5 μL of increasing concentrations of anandamide was added to each well followed by a 90-minute incubation at 37° C., 5% CO2 in a humidified incubator. 55 μL of detection reagent (as supplied by DiscoveRX) was then added, followed by a further 90 minute incubation at room temperature in the dark. Chemiluminescence, reported in relative light units (RLU—a dimensionless value, standardised as a % of maximum stimulation with anandamide), was measured on a standard luminescence plate reader.
Data were plotted as % of maximal stimulation (Emax) caused by agonist versus the logarithm of concentration of agonist, in the presence or absence of a fixed concentration of test compound (modulator) or vehicle. For example, stimulation in the presence of agonist alone will give a value for stimulation expressed in RLU, which can be expressed as a range from 0% (at lowest agonist concentration, e.g., 1 nM) to 100% (at the highest agonist concentration, e.g., 10 μM). […]

T1 sequence (P21554 whole entry): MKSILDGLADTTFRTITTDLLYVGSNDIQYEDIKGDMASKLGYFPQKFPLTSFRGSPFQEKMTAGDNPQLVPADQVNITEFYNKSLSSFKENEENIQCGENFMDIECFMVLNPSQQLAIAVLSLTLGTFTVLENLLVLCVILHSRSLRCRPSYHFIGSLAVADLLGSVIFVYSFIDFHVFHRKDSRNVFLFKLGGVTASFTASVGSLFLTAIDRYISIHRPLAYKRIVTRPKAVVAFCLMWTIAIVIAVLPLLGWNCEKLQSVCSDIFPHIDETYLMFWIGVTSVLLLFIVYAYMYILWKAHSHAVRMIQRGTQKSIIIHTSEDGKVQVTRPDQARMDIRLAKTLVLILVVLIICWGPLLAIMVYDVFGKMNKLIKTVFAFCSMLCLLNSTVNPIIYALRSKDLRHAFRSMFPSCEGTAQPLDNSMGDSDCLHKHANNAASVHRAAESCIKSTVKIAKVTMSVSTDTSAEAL

SMILES | IC50 (cannabinoid CB1 receptor) [nM] | melting point [°C]
Clc1ccc2[nH]c(-c3nnc(Nc4ccccc4)o3)cc2c1 [ABM310, 5-(5-Chloro-1H-indol-2-yl)-N-phenyl-1,3,4-oxadiazol-2-amine] | 3 | 272 to 274
CCc1c(-c2nnc(SCc3ccc(OC)cc3)o2)[nH]c2ccc(Cl)cc12 [ABM331, 2-(5-Chloro-3-ethyl-1H-indol-2-yl)-5-((4-methoxybenzyl)thio)-1,3,4-oxadiazole] | 56 | 179 to 181
CCc1c(-c2nnc(SCc3ccc(C)cc3)o2)[nH]c2ccc(Br)cc12 [ABM327, 2-(5-Bromo-3-ethyl-1H-indol-2-yl)-5-((4-methylbenzyl)thio)-1,3,4-oxadiazole] | 67 | 201 to 203
Cc1c(-c2nnc(NCCc3ccccc3)o2)[nH]c2ccc(Cl)cc12 [ABM319, 5-(5-Chloro-3-methyl-1H-indol-2-yl)-N-phenethyl-1,3,4-oxadiazol-2-amine] | 1 | 195 to 197
CCc1c(-c2nnc(SCCc3ccccc3)o2)[nH]c2ccc(Br)cc12 [ABM325] | 315 | 185 to 186
CCc1c(-c2nnc(NCc3ccccc3)o2)[nH]c2ccc(Cl)cc12 [ABM313, N-Benzyl-5-(5-chloro-3-ethyl-1H-indol-2-yl)-1,3,4-oxadiazol-2-amine] | 12 | 216 to 218
CCc1c(-c2nnc(NCCc3ccccc3)o2)[nH]c2ccc(Cl)cc12 [ABM317, 5-(5-Chloro-3-ethyl-1H-indol-2-yl)-N-phenethyl-1,3,4-oxadiazol-2-amine] | 0.5 | 175 to 177
CCc1c(-c2nnc(Nc3ccccc3)o2)[nH]c2ccc(Br)cc12 [ABM312, 5-(5-Bromo-3-ethyl-1H-indol-2-yl)-N-phenyl-1,3,4-oxadiazol-2-amine] | 1 | 240 to 242
Cc1c(-c2nnc(SCc3ccc(F)cc3)o2)[nH]c2ccc(Cl)cc12 [ABM339, 2-(5-Chloro-3-methyl-1H-indol-2-yl)-5-((4-fluorobenzyl)thio)-1,3,4-oxadiazole] | 270 | 210 to 212
CCc1c(-c2nnc(SCCc3ccccc3)o2)[nH]c2ccc(Cl)cc12 [ABM329, 2-(5-Chloro-3-ethyl-1H-indol-2-yl)-5-(phenethylthio)-1,3,4-oxadiazole] | 930 | 
Cc1ccc(CSc2nnc(-c3[nH]c4ccc(Cl)cc4c3C)o2)cc1 [ABM324, 2-(5-Chloro-3-methyl-1H-indol-2-yl)-5-((4-methylbenzyl)thio)-1,3,4-oxadiazole] |  | 212 to 214
CCc1c(-c2nnc(SCc3ccc(OC)cc3)o2)[nH]c2ccc(Br)cc12 [ABM309, 2-(5-Bromo-3-ethyl-1H-indol-2-yl)-5-((4-methoxybenzyl)thio)-1,3,4-oxadiazole] |  | 181 to 183

The remaining lines, values ahead:

IC50 (cannabinoid CB1 receptor) [nM] | melting point [°C] | SMILES
1 | 256 to 258 | Cc1c(-c2nnc(Nc3ccc(F)cc3)o2)[nH]c2ccc(Cl)cc12 [ABM337, 5-(5-Chloro-3-methyl-1H-indol-2-yl)-N-(4-fluorophenyl)-1,3,4-oxadiazol-2-amine]
 | 178 to 180 | c1ccc(CSc2nnc(-c3cc4ccccc4[nH]3)o2)cc1 [ABM333, 2-(Benzylthio)-5-(1H-indol-2-yl)-1,3,4-oxadiazole]
 | 134 to 135 | CCc1c(-c2nnc(SCCCc3ccccc3)o2)[nH]c2ccc(Br)cc12 [ABM326, 2-(5-Bromo-3-ethyl-1H-indol-2-yl)-5-((3-phenylpropyl)thio)-1,3,4-oxadiazole]
7 | 220 to 222 | Cc1c(-c2nnc(NCc3ccccc3)o2)[nH]c2ccc(Cl)cc12 [ABM315, N-Benzyl-5-(5-chloro-3-methyl-1H-indol-2-yl)-1,3,4-oxadiazol-2-amine]
 | 170 to 172 | CCc1c(-c2nnc(SCCCc3ccccc3)o2)[nH]c2ccc(Cl)cc12 [ABM330, 2-(5-Chloro-3-ethyl-1H-indol-2-yl)-5-((3-phenylpropyl)thio)-1,3,4-oxadiazole]
